The results in this text go back to patent US9464042B2, “Biguanide derivative, preparation method thereof, and pharmaceutical composition containing same as an active ingredient” (IMMUNOMET THERAPEUTICS INC., priority 2010, dated 2016).

Structures can show the parent of a compound that is named as a salt.

In data set [1] the test system is AMPK. As to the kind of experiment: AMPK activation (AMPKα immunoassay kit, phospho-Thr172) in MCF7 cells. Format: cell-based, human. Also noted: AMPK Activation 50 uM (degree of phosphorylated AMPKα Thr172): unit not given here. To be noted: 24 h; for AMPK Activation 50 uM (degree of phosphorylated AMPKα Thr172): 50 uM compound. The protocol: The MCF7 cells were put on a 6-well plate and incubated in a DMEM medium containing 10% fetal bovine serum in an incubator to which 5% CO2 was supplied to have a cell count of approximately 5×10^5. 50 μM of the derivatives synthesized in the examples were treated to the each culture medium, and the cells were incubated for 24 hours. Subsequently, the cells were lysed by a method presented in the operation manual of the AMPKα immunoassay kit, and 20 μg of cell lysates were yielded through protein assay.

The subject of data set [2] is HCT116 cells. As to the kind of experiment: Inhibition of cancer cell proliferation (MTT, GIC50). To be noted: Homo sapiens, HCT-116, 48 h incubation. The format is cell-based. The protocol: HCT116 cells derived from human colorectal cancer were used, and a cancer cell proliferation inhibition effect of a biguanide derivative was confirmed by measuring a concentration value (cell growth inhibition concentration, GIC50) at which cell growth was inhibited 50% using a 3-(4,5-dimethylthiazol-2-yl)-2,5-diphenyltetrazolium bromide (MTT) reagent.
First, the HCT116 cells were put on a 96-well plate and incubated for 24 hours to each have cell count of approximately 5000 in a DMEM medium containing 10% fetal bovine serum. Subsequently, to obtain the GIC50 value of each compound, 100 μM (or 200 μM), 25 μM, 6.25 μM, 1.56 μM or 0.39 μM of the compound was treated to each culture medium and then incubated for 48 hours. To confirm living cells after treatment with the compound, MTT was added to each culture medium and further incubated for 3 hours. Generated formazane crystal was dissolved using dimethyl sulfoxide (DMSO), and absorbance of the solution was measured at 560 nm. After the 48-hour incubation, a ratio of […] synthesized in the examples was indicated as cell viability (%) according to each administered concentration. A cell viability curve was plotted using the cell viability (%) and the calculated concentration value (GIC50) of the compound, at which 50% of the growth was inhibited, to confirm an effect on the inhibition of cancer cell proliferation.

Where [3] appears, read: 50 uM compound vs 0 (no compound).

What is called IC50 is the concentration needed to halve the response being measured. With `CCCC/N=C(/NC(=N)N)NC1CCCCCC1.Cl` [Example 1, N4-butyl-N5-cycloheptyl biguanide hydrochloride], the “AMPK Activation Fold” value in data set [1] (setting [3]) was determined as 4.0. Further, the “AMPK Activation 50 uM (degree of phosphorylated AMPKα Thr172)” value (from here on “AMPK Activation 50 uM”) in data set [1] is listed as 21.1. For the same compound, the IC50 in data set [2] was above 200 µM.

By melting point is commonly meant the temperature of the solid-liquid transition. Consider `CCC/N=C(\NC)NC(=N)N.Cl` [Example 2, N4-propyl-N5-methyl biguanide hydrochloride], for which the melting point lay in the range of 170 to 171 °C. Also, the “AMPK Activation Fold” value in data set [1] (setting [3]) is on record as 1.0. The “AMPK Activation 50 uM” value in data set [1] stood at 6.5. The IC50 in data set [2] is above 100 µM.

For `CCCCCC/N=C(\NC)NC(=N)N.Cl` [Example 3, N4-hexyl-N5-methyl biguanide hydrochloride], the “AMPK Activation Fold” value in data set [1] (setting [3]) was 5.2. Also, the “AMPK Activation 50 uM” value in data set [1] worked out at 35.5. In data set [2], this compound displayed an IC50 above 100 µM.

For `C=CC/N=C(\NC)NC(=N)N.Cl` [Example 4, N4-allyl-N5-methyl biguanide hydrochloride], the melting point lay within 156 to 157 °C. Besides, the “AMPK Activation Fold” value in data set [1] (setting [3]) is listed as 0.8. For the same compound, in data set [1], the “AMPK Activation 50 uM” value stood at 5.3. In addition, the IC50 in data set [2] was above 100 µM.

Compound `CN/C(=N\Cc1ccccc1)NC(=N)N.Cl` [Example 5, N4-benzyl-N5-methyl biguanide hydrochloride] showed a melting point of 113 to 115 °C. Besides, in data set [1] (setting [3]), the “AMPK Activation Fold” value was 1.6. In addition, in data set [1], the “AMPK Activation 50 uM” value was determined as 10.8. The same compound came in with an IC50 in data set [2] above 100 µM.

For the compound `CN/C(=N\CCc1ccccc1)NC(=N)N.Cl` [Example 6, N4-(phenetyl)-N5-methyl biguanide hydrochloride], the melting point is 126 to 127 °C. For the same compound, the “AMPK Activation Fold” value in data set [1] (setting [3]) is given as 4.9. The “AMPK Activation 50 uM” value in data set [1] came out at 33.1. In addition, the IC50 in data set [2] was above 100 µM.

`CCCCCC/N=C(/NC(=N)N)NC(C)CC.Cl` (stereo not drawn) [Example 7, N4-hexyl-N5-(butane-2-yl)biguanide hydrochloride] displayed a melting point of 175 to 176 °C. Besides, the “AMPK Activation Fold” value in data set [1] (setting [3]) is on record as 5.8. For the same compound, the “AMPK Activation 50 uM” value in data set [1] came out at 39.5. The IC50 in data set [2] was above 100 µM.

`CCC(C)N/C(=N\CCc1ccccc1)NC(=N)N.Cl` (stereo not drawn) [Example 8, N4-(phenetyl)-N5-(butyl-2-yl)biguanide hydrochloride] yielded a melting point of 181 to 183 °C. Further, the “AMPK Activation Fold” value in data set [1] (setting [3]) was 2.7. Moreover, the “AMPK Activation 50 uM” value in data set [1] stood at 18.4. In data set [2], this compound came in with an IC50 above 100 µM.

`CCCC/N=C(\NCCCC)NC(=N)N.Cl` [Example 9, N4,N5-dibutyl biguanide hydrochloride]: the melting point is 112 to 114 °C. Besides, the “AMPK Activation Fold” value in data set [1] (setting [3]) was determined as 3.8. Besides, the “AMPK Activation 50 uM” value in data set [1] is on record as 25.6. The same compound displayed an IC50 in data set [2] above 100 µM.

On to `CCCCCC/N=C(\NCCCC)NC(=N)N.Cl` [Example 10, N4-hexyl-N5-butyl biguanide hydrochloride], for which the “AMPK Activation Fold” value in data set [1] (setting [3]) is reported as 7.2. Moreover, in data set [1], the “AMPK Activation 50 uM” value was 38.1. Further, the IC50 in data set [2] worked out at 30.3 µM.

`CCCCN/C(=N\C(C)C)NC(=N)N.Cl` [Example 11, N4-isopropyl-N5-butyl biguanide hydrochloride] showed a melting point of 173 to 175 °C. Further, in data set [1] (setting [3]), the “AMPK Activation Fold” value is 0.6. In addition, the “AMPK Activation 50 uM” value in data set [1] was found to be 4.2. The IC50 in data set [2] was above 100 µM.

`CCCCN/C(=N\C(C)CC)NC(=N)N.Cl` (stereo not drawn) [Example 12, N4-(butane-2-yl)-N5-butyl biguanide hydrochloride] gave a melting point of 193 to 194 °C. Further, in data set [1] (setting [3]), the “AMPK Activation Fold” value stood at 1.5. For the same compound, the “AMPK Activation 50 uM” value in data set [1] is on record as 8.1. Further, the IC50 in data set [2] is above 200 µM.

Consider `C=CC/N=C(\NCCCC)NC(=N)N.Cl` [Example 13, N4-allyl-N5-butyl biguanide hydrochloride], for which the “AMPK Activation Fold” value in data set [1] (setting [3]) is 3.9. Besides, the “AMPK Activation 50 uM” value in data set [1] is given as 20.5. The IC50 in data set [2] is above 200 µM.

With `CCCCN/C(=N\Cc1ccco1)NC(=N)N.Cl` [Example 15, N4-(furane-2-yl)methyl-N5-butyl biguanide hydrochloride], in data set [1] (setting [3]), the “AMPK Activation Fold” value amounted to 3.7. Further, the “AMPK Activation 50 uM” value in data set [1] is on record as 19.4. Besides, in data set [2], the IC50 is above 200 µM.

`CCCCN/C(=N\Cc1ccccc1)NC(=N)N.Cl` [Example 18, N4-benzyl-N5-butyl biguanide hydrochloride]: the “AMPK Activation Fold” value in data set [1] (setting [3]) came to 1.8. The “AMPK Activation 50 uM” value in data set [1] was found to be 9.6. Also, in data set [2], the IC50 is above 200 µM.

As for `CCCCN/C(=N\Cc1cccc(Cl)c1)NC(=N)N.Cl` [Example 20, N4-(3-chloro)benzyl-N5-butyl biguanide hydrochloride], the “AMPK Activation Fold” value in data set [1] (setting [3]) is given as 1.5. Besides, the “AMPK Activation 50 uM” value in data set [1] was found to be 7.2. Moreover, the IC50 in data set [2] stood at 54.1 µM.

On to `CCCCN/C(=N\Cc1ccc(Cl)cc1)NC(=N)N.Cl` [Example 21, N4-(4-chloro)benzyl-N5-butyl biguanide hydrochloride], for which the melting point is 113 to 115 °C. This compound yielded an IC50 in data set [2] of 13.5 µM.

Turning to `CCCCN/C(=N\Cc1ccc(OC)cc1)NC(=N)N.Cl` [Example 22, N4-(4-methoxyl)benzyl-N5-butyl biguanide hydrochloride], the “AMPK Activation Fold” value in data set [1] (setting [3]) is recorded as 4.4. Further, the “AMPK Activation 50 uM” value in data set [1] was found to be 29.9. The same compound came in with an IC50 in data set [2] above 100 µM.

With `CCCCN/C(=N\Cc1ccc(Cl)c(Cl)c1)NC(=N)N.Cl` [Example 23, N4-(3,4-dichloro)benzyl-N5-butyl biguanide hydrochloride], in data set [1] (setting [3]), the “AMPK Activation Fold” value is 7.8. In addition, the “AMPK Activation 50 uM” value in data set [1] came out at 19.5. In data set [2], this compound registered an IC50 of 35.3 µM.

As to `CCCCN/C(=N\CCc1ccc(Cl)cc1)NC(=N)N.Cl` [Example 25, N4-(4-chloro)phenethyl)-N5-butyl biguanide hydrochloride], the IC50 in data set [2] amounted to 26.5 µM.

As for `CCCCN/C(=N\CCc1ccc(Cl)cc1)NC(=N)N.Cl` [Example 25], the melting point fell in the range of 123 to 124 °C. In data set [1] (setting [3]), the “AMPK Activation Fold” value is on record as 6.7. In addition, the “AMPK Activation 50 uM” value in data set [1] came to 16.7.

Take `C=CC/N=C(\NCc1ccccc1)NC(=N)N.Cl` [Example 29, N4-allyl-N5-benzyl biguanide hydrochloride]: the “AMPK Activation Fold” value in data set [1] (setting [3]) is 1.0. In addition, the “AMPK Activation 50 uM” value in data set [1] was 5.5. In data set [2], this compound returned an IC50 above 200 µM.

Regarding `Cl.N=C(N)N/C(=N/C1CCCCCC1)NCc1ccccc1` [Example 31, N4-cycloheptyl-N5-benzyl biguanide hydrochloride], the “AMPK Activation Fold” value in data set [1] (setting [3]) is 6.6. The “AMPK Activation 50 uM” value in data set [1] amounted to 44.6. Moreover, the IC50 in data set [2] was above 100 µM.

For the compound `CCCC/N=C(\NCCc1ccccc1)NC(=N)N.Cl` [Example 33, N4-butyl-N5-(phenethyl)biguanide hydrochloride], the melting point lay in the range of 178 to 179 °C. Also, in data set [2], 6.5 µM corresponded to half-maximal inhibition (IC50).

Compound `Cl.N=C(N)N/C(=N/c1ccccc1)NCCc1ccccc1` [Example 35, N4-phenyl-N5-(phenethyl)biguanide hydrochloride] gave a melting point of 232 to 233 °C. In addition, the “AMPK Activation Fold” value in data set [1] (setting [3]) is 1.3. Further, the “AMPK Activation 50 uM” value in data set [1] was determined as 9.0.

Consider `Cl.N=C(N)N/C(=N/c1ccc(Cl)cc1)NCCc1ccccc1` [Example 36, N4-(4-chloro)phenyl-N5-(phenethyl)biguanide hydrochloride], for which the melting point is 115 to 116 °C. This compound also gave a half-inhibitory concentration (IC50) in data set [2] of 9.3 µM.

For `Cl.N=C(N)N/C(=N/Cc1ccco1)NCCc1ccccc1` [Example 38, N4-(furan-2-yl)methyl-N5-(phenethyl)biguanide hydrochloride], the “AMPK Activation Fold” value in data set [1] (setting [3]) is reported as 3.2. Moreover, in data set [1], the “AMPK Activation 50 uM” value is given as 22.0. In data set [2], the IC50 is above 100 µM.

Turning to `COc1ccc(C/N=C(/NC(=N)N)N(C)Cc2cccc3ccccc23)cc1.Cl` [Example 46, N4-(4-methoxyl)benzyl-N5,N5-(1-naphthylmethyl)-(methyl) biguanide hydrochloride], in data set [1] (setting [3]), the “AMPK Activation Fold” value is on record as 3.7. Further, the “AMPK Activation 50 uM” value in data set [1] came to 19.5. In data set [2], this compound displayed an IC50 of 99.1 µM.

Turning to `CN(C)C(=N)N=C(N)N` [Metformin HCl, reference compound], in data set [1] (1 mM metformin vs 0 (no compound)), the “AMPK Activation Fold” value amounted to 3.2. The “AMPK Activation (@ 1 mM) (degree of phosphorylated AMPKα Thr172)” value in data set [1] (1 mM metformin) came out at 21.5.
